These results are taken from US12357636B2 (Urovant Sciences GmbH, priority 2018, dated 2025).

The nature of series [1]: effect of food on oral absorption. The class given is in vivo, human.
Series [2] can be described thus: human plasma protein binding. Type of series: in vitro ADME.
Where [3] appears, read: 150 mg multiple doses, Day 14, middle-aged females.
Setting [4] is: single 50 mg, Japanese young males.
[5] abbreviates: single 50 mg, non-Japanese young males.

Turning to `O=C(Nc1ccc(C[C@@H]2CC[C@H]([C@H](O)c3ccccc3)N2)cc1)[C@@H]1CCc2nccc(=O)n21` [Vibegron, (6S)—N-[4-[[(2S,5R)-5-[(R)-hydroxy(phenyl)methyl]pyrrolidin-2-yl]methyl]phenyl]-4-oxo-7,8-dihydro-6H-pyrrolo[1,2-a]pyrimidine-6-carboxamide], the “mean Cmax with food compared to fasted state” value in series [1] (150 mg multiple doses, Day 1) is reported as 59%. The “mean AUC0-24 with food compared to fasted state” value in series [1] (150 mg multiple doses, Day 1, middle-aged and elderly females) was ~42%. For the same compound, in series [1] (150 mg multiple doses, Day 14), the “mean AUC0-24 with food compared to fasted state” value is listed as ~20% and the “mean Cmax with food compared to fasted state” value is given as 43%. Also, in series [1] (setting [3]), the “reduction in mean AUC0-24hr with food vs fasted” value is recorded as 20% and the “reduction in mean Cmax with food vs fasted” value was found to be 47%. Also, the Tmax in series [1] (male, human, plasma, oral, single 50 mg, non-Japanese young males, read-out: delay in Tmax with high-fat meal) is ~1 h. Further, in series [1] (setting [4]), the “reduction in AUC0-inf with standard Japanese breakfast” value was 37% and the “reduction in Cmax with standard Japanese breakfast” value is reported as 52%. Besides, in series [1] (setting [5]), the “reduction in AUC0-inf with high-fat meal vs fasted” value is 46% and the “reduction in Cmax with high-fat meal vs fasted” value was 67%. The “bound to human plasma proteins” value in series [2] is given as “approximately 49%”.
